From the RepoRT retention time repository

Experiment: RP, Waters CORTECS UPLC C18, 100 × 2.1 mm, 1.6 µm, 40 °C, 0.4 mL/min, estimated dead time 0.55 min; A: water + 0.1% formic acid, pH 3; B: acetonitrile + 0.1% formic acid, pH 3; gradient (min/%B) 0/5 1.12/5 6.41/99.5 10.01/99.5
Details: stereoisomer not certain

SMILES	LC retention time [min]
Cc1cc(C)nc(NC(=O)NS(=O)(=O)c2ccccc2C(=O)OC2COC2)n1 [Oxasulfuron]	3.85
Cc1cc2nc[nH]c2cc1C [5,6 DIMETHYLBENZIMIDAZOLE]	2.64
CCCCCCCCCCCC[n+]1cccc(S(=O)(=O)[O-])c1 [C12-APS]	4.89
O=C1CC[C@@H](C(=O)O)N1 [L-Pyroglutamic acid]	0.71
CC(=O)NCCCC(=O)O [4-ACETAMIDOBUTANOATE]	0.817
CC12CC1(C)C(=O)N(c1cc(Cl)cc(Cl)c1)C2=O (stereo unspecified) [Procymidone]	5.21
COP(=O)(OC)SCn1c(=O)oc2cc(Cl)cnc21 [Azamethiphos]	3.91
CNC(=O)C=C(C)OP(=O)(OC)OC [Monocrotophos]	2.65
CCCCCCCCCCCCC[n+]1cccc(S(=O)(=O)[O-])c1 [C13-APS]	5.19
CC(=O)NCCc1c[nH]c2ccc(O)cc12 [N-ACETYLSEROTONIN]	2.55
CC1NCCc2cc(O)c(O)cc21 (stereo unspecified) [SALSOLINOL]	0.749
Cc1cnc2c(C(=O)O)c(Cl)ccc2c1 [Quinmerac]	3.17
Cc1ccc(C(C)NC(=O)C(NC(=O)OC(C)C)C(C)C)cc1 (stereo unspecified) [Iprovalicarb]	4.86
COC(=O)C=C(C)OP(=O)(OC)OC [Mevinphos]	3.41
CCCCCCCC[n+]1cccc(S(=O)(=O)[O-])c1 [C8-APS]	3.67
CN(C)C(=O)Nc1ccccc1 [Fenuron]	3.14
CC12CCC(=O)C=C1CCC1C2CCC2(C)C1CCC2(O)C(=O)CO (stereo unspecified) [CORTEXOLONE]	4.05
CN(C)C(=O)Nc1cccc(C(F)(F)F)c1 [Fluometuron]	4.2
CCCSP(=O)(OCC)SCCC [Ethoprop]	5.02
CCN(CC)C(=O)c1cccc(C)c1 [Deet]	4.37
CON=C(C(=O)OC)c1ccccc1CON=C(C)c1cccc(C(F)(F)F)c1 [Trifloxystrobin]	5.81
CC1C(c2ccc(Cl)cc2)SC(=O)N1C(=O)NC1CCCCC1 (stereo unspecified) [Hexythiazox]	6.21

SMILES	LC retention time [min]
CSCC1OC(n2cnc3c(N)ncnc32)C(O)C1O (stereo unspecified) [METHYLTHIOADENOSINE]	2.19
CC(C1CC1)C(O)(Cn1cncn1)c1ccc(Cl)cc1 (stereo unspecified) [Cyproconazole]	4.78
Cc1cc(C(F)(C(F)(F)F)C(F)(F)F)ccc1NC(=O)c1cccc(I)c1C(=O)NC(C)(C)CS(C)(=O)=O [Flubendiamide]	5.35
COc1nc(NC(C)C)nc(NC(C)C)n1 [Prometon]	3.54
COC(=O)CCCC(=O)O [MONOMETHYLGLUTARATE]	2.47
CC1(C(=O)Nc2ccc(O)c(Cl)c2Cl)CCCCC1 [Fenhexamid]	5
O=C(O)c1cc(O)c(O)c(O)c1 [Gallic acid]	0.886
Cc1cc2nc3c(=O)[nH]c(=O)nc-3n(CC(O)C(O)C(O)CO)c2cc1C (stereo unspecified) [RIBOFLAVIN]	2.67
Nc1nc2c(ncn2C2CC(O)C(CO)O2)c(=O)[nH]1 (stereo unspecified) [DEOXYGUANOSINE]	0.751
N#CCNC(=O)c1cnccc1C(F)(F)F [Flonicamid]	2.88
CCCCCC=CC(=O)OC(CC(=O)[O-])C[N+](C)(C)C [trans-2-Octenoyl-L-carnitine]	3.56
CCOP(=S)(OCC)Oc1cc(C)nc(C(C)C)n1 [Diazinon]	5.73
Cc1c(C)c2c(c(C)c1O)CCC(C)(CCCC(C)CCCC(C)CCCC(C)C)O2 (stereo not drawn) [ALPHA-TOCOPHEROL]	5.92
Nc1nc2c(ncn2C2OC(CO)C(O)C2O)c(=O)[nH]1 (stereo unspecified) [GUANOSINE]	0.76
CCCCC(=O)OC(CC(=O)[O-])C[N+](C)(C)C [Valeryl-L-carnitine]	2.66
N#CN=C1SCCN1Cc1ccc(Cl)nc1 [Thiacloprid]	3.6
CC1(C)CCC(Cc2ccc(Cl)cc2)C1(O)Cn1cncn1 (stereo unspecified) [Metconazole]	5.24
CC1C(=O)Nc2ccccc21 (stereo unspecified) [3-METHYL-2-OXINDOLE]	3.39
CSC(C)=NOC(=O)N(C)SN(C)C(=O)ON=C(C)SC [Thiodicarb]	4
Clc1ccccc1-c1nnc(-c2ccccc2Cl)nn1 [Clofentezine]	5.65
Cc1cc(C)c(C2=C(OC(=O)CC(C)(C)C)C3(CCCC3)OC2=O)c(C)c1 [Spiromesifen]	6.47
CC(CCC(=O)NCC(=O)O)C1CCC2C3CCC4CC(O)CCC4(C)C3CC(O)C12C (stereo unspecified) [Glycodeoxycholic acid]	4.66

SMILES	LC retention time [min]
COC(=O)Nc1cccc(OC(=O)Nc2cccc(C)c2)c1 [Phenmediphan]	4.71
CC(C)(C)C(O)(CCc1ccc(Cl)cc1)Cn1cncn1 (stereo unspecified) [Tebuconazole]	5.06
O=c1[nH]c(=O)c2ncn(C3OC(CO)C(O)C3O)c2[nH]1 (stereo unspecified) [XANTHOSINE]	0.752
CCOP(=S)(OCC)Oc1ccc2c(C)c(Cl)c(=O)oc2c1 [Coumaphos]	5.6
NCCc1ccc(O)cc1 [TYRAMINE]	0.755
CC(CCC(=O)O)C1CCC2C3CC(O)C4CC(O)CCC4(C)C3CCC12C (stereo unspecified) [Hyodeoxycholic acid]	4.58
COC(=O)C(C)N(C(=O)Cc1ccccc1)c1c(C)cccc1C (stereo unspecified) [Benalaxyl]	5.46
CCCCC(O)(Cn1cncn1)c1ccc(Cl)cc1Cl (stereo unspecified) [Hexaconazole]	5.17
O=C(O)c1c[nH]c2ccccc12 [Indole-3-carboxylic acid]	3.21
CC(C)C1CCC(Cc2ccc(Cl)cc2)C1(O)Cn1cncn1 (stereo unspecified) [Ipconazole]	5.48
CCOC(=O)C(Cl)Cc1cc(-n2nc(C)n(C(F)F)c2=O)c(F)cc1Cl (stereo unspecified) [Carfentrazone-ethyl]	5.39
CCCCCCCCCCCCCC(=O)OC(CC(=O)[O-])C[N+](C)(C)C [Myristoyl-L-carnitine]	5.13
C#CCOc1ccc(CCNC(=O)C(OCC#C)c2ccc(Cl)cc2)cc1OC (stereo unspecified) [Mandipropamid]	4.95
N[C@@H](Cc1cc(I)c(O)c(I)c1)C(=O)O [3,5-DIIODO-L-TYROSINE]	2.69
COP(=S)(OC)Oc1c(Cl)cc(C)cc1Cl [Tolclosof methyl]	5.72
O=C(NCc1ncc(C(F)(F)F)cc1Cl)c1c(Cl)cccc1Cl [Fluopicolide]	5.06
CC(=NC#N)N(C)Cc1ccc(Cl)nc1 [Acetamiprid]	3.33
NCC(O)c1ccccc1 (stereo unspecified) [PHENYLETHANOLAMINE]	0.755
NC1=C(Cl)C(=O)c2ccccc2C1=O [Quinoclamine]	3.86
COCCCNc1nc(NC(C)C)nc(SC)n1 [Methoprotryne]	3.87
CCCCCCCCC[n+]1cccc(S(=O)(=O)[O-])c1 [C9-APS]	3.99
C[Si](Cn1cncn1)(c1ccc(F)cc1)c1ccc(F)cc1 [Flusilazole]	5.06
